In publication PMC6120666 (The EMBO Journal, 2018):

Assays:
Test in all cases: Drug affinity chromatography with c-ponatinib and LC-MS/MS (ponatinib interactome)
Format in all cases: binding
[1] = biological target: T1, proteins of U2OS cell lysate (Homo sapiens, UniProt P55884); conditions: captured protein EIF3B, Rank 123
T1 construct: Proteins enriched by c-ponatinib from U2OS cell lysate; endogenous in cells; host or cells: U2OS cell lysate
Summary of the method: (§1)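 U2OS cell lysate in NP-40 lysis buffer (2 mg protein per pulldown) was incubated with amine-derivatized NHS beads for 2 h at 4 °C. Bound proteins were washed, eluted with 100 mM formic acid, reduced, alkylated and trypsin-digested, then identified by nano-UPLC–MS/MS on Orbitrap instruments with a 60 min gradient.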

[2] = biological target: T2, proteins of U2OS cell lysate (Homo sapiens, UniProt P21796); conditions: captured protein VDAC1, Rank 118
T2 construct: Proteins enriched by c-ponatinib from U2OS cell lysate; endogenous in cells; host or cells: U2OS cell lysate
Summary of the method: as §1

[3] = biological target: T3, proteins of U2OS cell lysate (Homo sapiens, UniProt Q00839); conditions: captured protein HNRNPU, Rank 192
T3 construct: Proteins enriched by c-ponatinib from U2OS cell lysate; endogenous in cells; host or cells: U2OS cell lysate
Summary of the method: as §1

[4] = biological target: T4, proteins of U2OS cell lysate (Homo sapiens, UniProt P62820); conditions: RAB1A;RAB1B, Ras-related protein Rab-1A
T4 construct: Proteins enriched by c-ponatinib from U2OS cell lysate; endogenous in cells; host or cells: U2OS cell lysate
Summary of the method: as §1

[5] = biological target: T5, proteins of U2OS cell lysate (Homo sapiens, UniProt Q02218); conditions: OGDH;OGDHL, 2-oxoglutarate dehydrogenase, mitochondrial
T5 construct: Proteins enriched by c-ponatinib from U2OS cell lysate; endogenous in cells; host or cells: U2OS cell lysate
T5 sequence (Q02218 41-1023): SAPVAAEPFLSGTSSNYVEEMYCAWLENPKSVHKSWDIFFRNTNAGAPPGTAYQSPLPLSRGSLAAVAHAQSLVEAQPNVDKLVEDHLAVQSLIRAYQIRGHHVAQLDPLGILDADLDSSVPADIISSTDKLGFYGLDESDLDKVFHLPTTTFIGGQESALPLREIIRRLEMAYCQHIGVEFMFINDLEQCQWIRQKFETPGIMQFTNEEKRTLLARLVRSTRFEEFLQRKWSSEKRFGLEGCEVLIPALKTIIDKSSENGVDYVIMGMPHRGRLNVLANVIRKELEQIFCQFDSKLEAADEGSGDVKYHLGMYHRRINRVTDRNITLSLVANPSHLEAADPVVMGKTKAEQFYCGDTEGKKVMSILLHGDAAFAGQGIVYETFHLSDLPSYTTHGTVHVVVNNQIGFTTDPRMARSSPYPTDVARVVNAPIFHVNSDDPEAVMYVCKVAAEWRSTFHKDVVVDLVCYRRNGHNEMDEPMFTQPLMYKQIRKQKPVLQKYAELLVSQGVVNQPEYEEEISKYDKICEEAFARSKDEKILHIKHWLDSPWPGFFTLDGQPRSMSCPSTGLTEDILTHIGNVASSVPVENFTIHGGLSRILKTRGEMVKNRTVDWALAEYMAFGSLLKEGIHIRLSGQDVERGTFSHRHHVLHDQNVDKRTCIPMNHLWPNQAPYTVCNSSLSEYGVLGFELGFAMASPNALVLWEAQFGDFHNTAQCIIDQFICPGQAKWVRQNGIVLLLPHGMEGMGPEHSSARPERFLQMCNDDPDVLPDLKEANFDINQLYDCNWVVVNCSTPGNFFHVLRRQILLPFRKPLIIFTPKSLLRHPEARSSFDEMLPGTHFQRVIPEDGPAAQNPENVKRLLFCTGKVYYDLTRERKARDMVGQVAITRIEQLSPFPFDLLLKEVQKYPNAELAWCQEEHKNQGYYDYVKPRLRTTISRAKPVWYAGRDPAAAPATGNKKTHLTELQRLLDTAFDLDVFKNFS
Summary of the method: as §1

[6] = biological target: T6, proteins of U2OS cell lysate (Homo sapiens, UniProt P35580); conditions: MYH10, Myosin-10
T6 construct: Proteins enriched by c-ponatinib from U2OS cell lysate; endogenous in cells; host or cells: U2OS cell lysate
Summary of the method: as §1

[7] = biological target: T7, proteins of U2OS cell lysate (Homo sapiens, UniProt Q15149); conditions: PLEC, Plectin
T7 construct: Proteins enriched by c-ponatinib from U2OS cell lysate; endogenous in cells; host or cells: U2OS cell lysate
Summary of the method: as §1

[8] = biological target: T8, proteins of U2OS cell lysate (Homo sapiens, UniProt O43809); conditions: NUDT21, Cleavage and polyadenylation specificity factor subunit 5
T8 construct: Proteins enriched by c-ponatinib from U2OS cell lysate; endogenous in cells; host or cells: U2OS cell lysate
Summary of the method: as §1

[9] = biological target: T9, proteins of U2OS cell lysate (Homo sapiens, UniProt Q13163); conditions: MAP2K5, Dual specificity mitogen-activated protein kinase kinase 5
T9 construct: Proteins enriched by c-ponatinib from U2OS cell lysate; endogenous in cells; host or cells: U2OS cell lysate
Summary of the method: as §1

[10] = biological target: T10, proteins of U2OS cell lysate (Homo sapiens, UniProt P61026); conditions: RAB10, Ras-related protein Rab-10
T10 construct: Proteins enriched by c-ponatinib from U2OS cell lysate; endogenous in cells; host or cells: U2OS cell lysate
T10 sequence (P61026 whole entry): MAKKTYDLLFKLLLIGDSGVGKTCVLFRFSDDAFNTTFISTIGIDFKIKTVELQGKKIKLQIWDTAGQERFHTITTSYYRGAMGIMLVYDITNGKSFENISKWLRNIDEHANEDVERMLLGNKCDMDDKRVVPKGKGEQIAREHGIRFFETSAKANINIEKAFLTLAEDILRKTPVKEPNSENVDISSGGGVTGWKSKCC
Summary of the method: as §1

[11] = biological target: T11, proteins of U2OS cell lysate (Homo sapiens, UniProt P35579); conditions: MYH9, Myosin-9
T11 construct: Proteins enriched by c-ponatinib from U2OS cell lysate; endogenous in cells; host or cells: U2OS cell lysate
Summary of the method: as §1

[12] = biological target: T12, proteins of U2OS cell lysate (Homo sapiens, UniProt P21333); conditions: FLNA, Filamin-A
T12 construct: Proteins enriched by c-ponatinib from U2OS cell lysate; endogenous in cells; host or cells: U2OS cell lysate
T12 sequence (P21333 whole entry): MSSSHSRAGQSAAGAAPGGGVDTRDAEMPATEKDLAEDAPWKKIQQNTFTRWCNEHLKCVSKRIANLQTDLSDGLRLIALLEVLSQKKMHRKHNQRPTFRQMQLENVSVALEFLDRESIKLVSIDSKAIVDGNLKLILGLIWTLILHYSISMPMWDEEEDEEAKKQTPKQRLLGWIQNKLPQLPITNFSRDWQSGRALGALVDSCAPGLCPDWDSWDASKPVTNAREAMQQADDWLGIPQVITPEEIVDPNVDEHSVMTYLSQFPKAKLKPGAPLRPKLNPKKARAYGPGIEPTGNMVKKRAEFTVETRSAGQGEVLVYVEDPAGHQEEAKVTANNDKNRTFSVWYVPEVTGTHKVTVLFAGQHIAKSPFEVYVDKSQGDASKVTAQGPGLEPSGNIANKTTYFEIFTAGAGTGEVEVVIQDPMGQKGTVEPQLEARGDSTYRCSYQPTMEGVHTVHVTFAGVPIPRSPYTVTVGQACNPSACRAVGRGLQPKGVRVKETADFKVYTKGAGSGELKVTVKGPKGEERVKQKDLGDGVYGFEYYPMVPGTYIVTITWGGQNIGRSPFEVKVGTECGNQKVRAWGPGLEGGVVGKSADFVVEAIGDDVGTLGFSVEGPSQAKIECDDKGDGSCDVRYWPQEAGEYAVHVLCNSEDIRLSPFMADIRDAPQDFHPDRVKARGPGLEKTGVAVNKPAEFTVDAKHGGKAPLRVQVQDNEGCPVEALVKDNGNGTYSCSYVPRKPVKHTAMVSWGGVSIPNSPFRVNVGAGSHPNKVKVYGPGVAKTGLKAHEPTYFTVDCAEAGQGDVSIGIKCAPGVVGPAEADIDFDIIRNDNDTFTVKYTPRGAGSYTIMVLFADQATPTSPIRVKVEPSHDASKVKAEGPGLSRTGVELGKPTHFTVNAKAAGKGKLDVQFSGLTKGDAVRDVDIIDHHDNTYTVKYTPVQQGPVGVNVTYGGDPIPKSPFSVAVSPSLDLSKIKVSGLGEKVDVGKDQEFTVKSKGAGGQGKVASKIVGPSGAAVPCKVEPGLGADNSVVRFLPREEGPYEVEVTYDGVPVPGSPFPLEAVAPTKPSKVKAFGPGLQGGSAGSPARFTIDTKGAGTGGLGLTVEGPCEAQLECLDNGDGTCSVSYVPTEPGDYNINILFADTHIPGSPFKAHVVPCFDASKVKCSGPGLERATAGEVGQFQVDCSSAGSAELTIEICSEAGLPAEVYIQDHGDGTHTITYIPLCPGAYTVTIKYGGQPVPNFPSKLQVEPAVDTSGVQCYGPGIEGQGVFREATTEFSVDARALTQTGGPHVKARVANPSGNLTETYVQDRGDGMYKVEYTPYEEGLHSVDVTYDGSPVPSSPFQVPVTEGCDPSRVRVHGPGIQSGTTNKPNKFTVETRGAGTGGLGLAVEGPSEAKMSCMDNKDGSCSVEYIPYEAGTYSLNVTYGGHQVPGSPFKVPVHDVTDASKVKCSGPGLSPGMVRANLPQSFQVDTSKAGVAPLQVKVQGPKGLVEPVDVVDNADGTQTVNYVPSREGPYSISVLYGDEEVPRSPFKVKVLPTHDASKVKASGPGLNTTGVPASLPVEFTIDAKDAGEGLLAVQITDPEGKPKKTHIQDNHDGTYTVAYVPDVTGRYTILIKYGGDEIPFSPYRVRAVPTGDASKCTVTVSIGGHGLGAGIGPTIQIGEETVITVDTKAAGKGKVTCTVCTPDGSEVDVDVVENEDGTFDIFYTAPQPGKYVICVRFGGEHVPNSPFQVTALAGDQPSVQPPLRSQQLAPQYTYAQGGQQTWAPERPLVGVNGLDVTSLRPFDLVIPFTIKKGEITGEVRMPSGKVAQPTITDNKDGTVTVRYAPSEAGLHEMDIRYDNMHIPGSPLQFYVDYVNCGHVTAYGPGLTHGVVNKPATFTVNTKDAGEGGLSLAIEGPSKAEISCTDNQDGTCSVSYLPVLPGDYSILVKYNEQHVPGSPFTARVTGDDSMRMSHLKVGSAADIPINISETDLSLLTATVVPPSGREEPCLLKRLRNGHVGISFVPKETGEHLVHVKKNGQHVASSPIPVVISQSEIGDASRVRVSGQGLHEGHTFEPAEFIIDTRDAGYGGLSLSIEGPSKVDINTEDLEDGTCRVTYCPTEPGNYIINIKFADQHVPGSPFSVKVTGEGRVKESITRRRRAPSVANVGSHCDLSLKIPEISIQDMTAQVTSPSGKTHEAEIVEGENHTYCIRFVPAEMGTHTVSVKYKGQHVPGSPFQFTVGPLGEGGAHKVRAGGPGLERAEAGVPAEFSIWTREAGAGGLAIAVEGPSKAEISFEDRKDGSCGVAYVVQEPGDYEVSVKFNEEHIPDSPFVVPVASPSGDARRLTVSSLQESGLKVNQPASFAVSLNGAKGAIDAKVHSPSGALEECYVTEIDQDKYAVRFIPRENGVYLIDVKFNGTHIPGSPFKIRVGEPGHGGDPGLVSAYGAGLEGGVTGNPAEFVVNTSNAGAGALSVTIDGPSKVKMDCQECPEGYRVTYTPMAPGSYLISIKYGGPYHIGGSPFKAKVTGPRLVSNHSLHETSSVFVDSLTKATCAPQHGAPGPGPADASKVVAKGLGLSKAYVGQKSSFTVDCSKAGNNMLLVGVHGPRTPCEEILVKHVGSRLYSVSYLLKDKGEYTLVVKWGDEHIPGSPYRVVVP
Summary of the method: as §1

[13] = biological target: T13, proteins of U2OS cell lysate (Homo sapiens, UniProt P43487); conditions: RANBP1, Ran-specific GTPase-activating protein
T13 construct: Proteins enriched by c-ponatinib from U2OS cell lysate; endogenous in cells; host or cells: U2OS cell lysate
Summary of the method: as §1

[14] = biological target: T14, proteins of U2OS cell lysate (Homo sapiens, UniProt Q14566); conditions: MCM6, DNA replication licensing factor MCM6
T14 construct: Proteins enriched by c-ponatinib from U2OS cell lysate; endogenous in cells; host or cells: U2OS cell lysate
T14 sequence (Q14566 whole entry): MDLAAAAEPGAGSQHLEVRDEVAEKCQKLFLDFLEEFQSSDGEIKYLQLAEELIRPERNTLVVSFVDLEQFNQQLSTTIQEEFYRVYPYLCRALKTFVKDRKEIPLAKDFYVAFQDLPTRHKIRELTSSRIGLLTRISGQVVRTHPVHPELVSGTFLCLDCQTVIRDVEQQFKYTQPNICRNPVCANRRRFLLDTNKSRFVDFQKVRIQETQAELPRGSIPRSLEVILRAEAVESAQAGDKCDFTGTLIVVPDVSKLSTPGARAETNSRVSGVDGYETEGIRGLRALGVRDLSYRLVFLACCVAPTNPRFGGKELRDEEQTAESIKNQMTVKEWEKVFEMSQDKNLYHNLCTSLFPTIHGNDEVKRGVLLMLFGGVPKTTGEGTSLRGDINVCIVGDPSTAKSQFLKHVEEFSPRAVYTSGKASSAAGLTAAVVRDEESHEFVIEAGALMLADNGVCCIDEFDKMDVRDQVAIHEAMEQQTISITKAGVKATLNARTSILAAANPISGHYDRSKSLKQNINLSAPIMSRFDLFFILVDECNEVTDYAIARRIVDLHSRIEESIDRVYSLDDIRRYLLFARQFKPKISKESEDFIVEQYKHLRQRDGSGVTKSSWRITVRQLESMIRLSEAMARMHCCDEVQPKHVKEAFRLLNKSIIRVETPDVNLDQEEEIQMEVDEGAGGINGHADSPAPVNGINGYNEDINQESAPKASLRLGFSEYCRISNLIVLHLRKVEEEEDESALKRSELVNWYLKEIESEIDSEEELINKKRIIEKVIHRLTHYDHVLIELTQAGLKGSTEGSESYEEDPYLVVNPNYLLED
Summary of the method: as §1

[15] = biological target: T15, proteins of U2OS cell lysate (Homo sapiens, UniProt P22830); conditions: FECH, Ferrochelatase, mitochondrial
T15 construct: Proteins enriched by c-ponatinib from U2OS cell lysate; endogenous in cells; host or cells: U2OS cell lysate
Summary of the method: as §1

[16] = biological target: T16, proteins of U2OS cell lysate (Homo sapiens, UniProt P51610); conditions: HCFC1, Host cell factor 1
T16 construct: Proteins enriched by c-ponatinib from U2OS cell lysate; endogenous in cells; host or cells: U2OS cell lysate
Summary of the method: as §1

[17] = biological target: T17, proteins of U2OS cell lysate (Homo sapiens, UniProt O00231); conditions: PSMD11, 26S proteasome non-ATPase regulatory subunit 11
T17 construct: Proteins enriched by c-ponatinib from U2OS cell lysate; endogenous in cells; host or cells: U2OS cell lysate
T17 sequence (O00231 whole entry): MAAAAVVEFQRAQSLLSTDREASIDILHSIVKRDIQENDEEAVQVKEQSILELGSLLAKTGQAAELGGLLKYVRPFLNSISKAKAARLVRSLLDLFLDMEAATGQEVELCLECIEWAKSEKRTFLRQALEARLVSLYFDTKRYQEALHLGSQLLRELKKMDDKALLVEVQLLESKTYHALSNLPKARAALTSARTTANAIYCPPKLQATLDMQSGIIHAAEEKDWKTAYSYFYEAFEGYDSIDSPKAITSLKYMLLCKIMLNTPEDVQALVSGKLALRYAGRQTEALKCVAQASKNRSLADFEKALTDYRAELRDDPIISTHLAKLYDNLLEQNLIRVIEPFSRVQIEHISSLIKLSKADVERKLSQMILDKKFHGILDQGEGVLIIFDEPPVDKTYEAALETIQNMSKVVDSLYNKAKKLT
Summary of the method: as §1

[18] = biological target: T18, proteins of U2OS cell lysate (Homo sapiens, UniProt P62333); conditions: PSMC6, 26S protease regulatory subunit 10B
T18 construct: Proteins enriched by c-ponatinib from U2OS cell lysate; endogenous in cells; host or cells: U2OS cell lysate
Summary of the method: as §1

[19] = biological target: T19, proteins of U2OS cell lysate (Homo sapiens, UniProt P17844); conditions: DDX5, Probable ATP-dependent RNA helicase DDX5
T19 construct: Proteins enriched by c-ponatinib from U2OS cell lysate; endogenous in cells; host or cells: U2OS cell lysate
Summary of the method: as §1

Compound | Average LFQ intensity [1] | Average LFQ intensity [2] | Average LFQ intensity [3] | Average LFQ PON_WT [4] | Average LFQ PON_WT [5] | Average LFQ PON_WT [6] | Average LFQ PON_WT [7] | Average LFQ PON_WT [8] | Average LFQ PON_WT [9] | Average LFQ PON_WT [10] | Average LFQ PON_WT [11] | Average LFQ PON_WT [12] | Average LFQ PON_WT [13] | Average LFQ PON_WT [14] | Average LFQ PON_WT [15] | Average LFQ PON_WT [16] | Average LFQ PON_WT [17] | Average LFQ PON_WT [18] | Average LFQ PON_WT [19]
Cc1ccc(C(=O)Nc2ccc(CN3CCN(CCCN)CC3)c(C(F)(F)F)c2)cc1C#Cc1cnc2cccnn12 [c-ponatinib, reference compound] | 23.0265 | 23.117 | 21.9786 |  |  |  |  |  |  |  |  |  |  |  |  |  |  |  | 
Cc1ccc(C(=O)Nc2ccc(CN3CCN(C)CC3)c(C(F)(F)F)c2)cc1C#Cc1cnc2cccnn12 [PON] |  |  |  | 23.3468 | 22.0277 | 20.7261 | 27.1637 | 20.8271 | 19.6379 | 19.7729 | 25.6681 | 25.7064 | 20.4588 | 19.2204 | 25.7972 | 21.0295 | 21.0044 | 21.4756 | 21.2715
